Here are results for one compound from paper PMC6934184, “Selective DNA-PKcs inhibition extends the therapeutic index of localized radiotherapy and chemotherapy” (The Journal of Clinical Investigation, 2019).

For the test, the target named is T1, CAMK2G (CaMKII gamma) (Homo sapiens, UniProt Q13555).
T1 construct: purchased Thermo Fisher Scientific (Life Technologies) SelectScreen
In words: SelectScreen LanthaScreen. The class given is binding. Particulars: read-out: % displacement. The procedure, abridged: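 NU5455 was profiled across the SelectScreen Broad panel of kinase activity and binding assays. Z'LYTE reactions such as CSF1R ran at apparent Km ATP, while the Adapta CAMK1 assay used ATP listed as 10. Values are given as percent.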

T1 sequence (Q13555 whole entry): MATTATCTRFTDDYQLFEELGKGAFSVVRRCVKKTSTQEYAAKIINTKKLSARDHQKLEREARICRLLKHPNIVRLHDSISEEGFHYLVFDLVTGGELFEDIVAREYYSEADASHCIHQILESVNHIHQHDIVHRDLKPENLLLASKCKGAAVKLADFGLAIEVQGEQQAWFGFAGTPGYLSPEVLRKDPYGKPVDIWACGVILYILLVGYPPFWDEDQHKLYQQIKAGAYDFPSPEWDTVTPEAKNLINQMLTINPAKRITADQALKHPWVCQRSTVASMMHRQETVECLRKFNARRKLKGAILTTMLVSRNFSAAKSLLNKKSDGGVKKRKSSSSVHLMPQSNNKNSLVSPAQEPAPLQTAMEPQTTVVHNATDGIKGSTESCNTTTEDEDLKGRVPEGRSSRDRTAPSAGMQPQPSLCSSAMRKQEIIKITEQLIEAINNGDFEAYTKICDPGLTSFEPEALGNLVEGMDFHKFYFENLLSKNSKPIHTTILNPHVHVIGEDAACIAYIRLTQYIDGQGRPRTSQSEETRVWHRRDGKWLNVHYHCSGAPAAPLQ

Turning to `CN(C(=O)CN1CCOCC1)c1ccc2sc3c(-c4cccc5c(=O)cc(N6CC7CCC(C6)O7)oc45)cccc3c2c1` [NU5455], the inhibition at 1 µM was -0.8%.
